# In paper PMC12199272, “Biochemical dissection of a fungal highly reducing polyketide synthase condensing region reveals basis for acyl group selection” (Chemical Science, 2025):
# Molecular target: T1, SimG AT domain (LD-AT) (Tolypocladium inflatum, UniProt Z9QNP6F7M4)
# T1 construct: excised AT domain with flanking linker domain (LD), active-site Ser706; recombinant; borders only in ESI
# T1 sequence (Z9QNP6F7M4 1-440): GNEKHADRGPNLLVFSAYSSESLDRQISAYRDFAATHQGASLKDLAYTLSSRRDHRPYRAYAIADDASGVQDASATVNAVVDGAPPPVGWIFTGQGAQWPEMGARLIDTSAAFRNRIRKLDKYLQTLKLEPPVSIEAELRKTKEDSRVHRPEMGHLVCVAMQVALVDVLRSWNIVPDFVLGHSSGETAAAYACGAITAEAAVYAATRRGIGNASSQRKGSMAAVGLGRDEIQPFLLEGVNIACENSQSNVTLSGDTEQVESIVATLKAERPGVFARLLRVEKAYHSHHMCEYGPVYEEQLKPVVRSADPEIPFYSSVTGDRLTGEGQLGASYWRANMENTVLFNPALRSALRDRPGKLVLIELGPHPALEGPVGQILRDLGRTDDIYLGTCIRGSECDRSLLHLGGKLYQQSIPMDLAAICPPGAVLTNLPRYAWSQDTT
# Test: intact protein MS, acyl-enzyme formation
# Type: biochemical
# Settings: covalent; active site Ser706
row,SMILES,% acylation of AT domain
1,CCCC(=O)SCCNC(=O)CCNC(=O)[C@H](O)C(C)(C)COP(=O)(O)OP(=O)(O)OC[C@H]1O[C@@H](n2cnc3c(N)ncnc32)[C@H](O)[C@@H]1OP(=O)(O)O [butyryl-CoA],good levels of AT transacylation were observed for C3–C10 substrates
2,CCCCCCCCCC(=O)SCCNC(=O)CCNC(=O)[C@H](O)C(C)(C)COP(=O)(O)OP(=O)(O)OC[C@H]1O[C@@H](n2cnc3c(N)ncnc32)[C@H](O)[C@@H]1OP(=O)(O)O [decanoyl-CoA],good levels of AT transacylation were observed for C3–C10 substrates
3,CCCCCC(=O)SCCNC(=O)CCNC(=O)[C@H](O)C(C)(C)COP(=O)(O)OP(=O)(O)OC[C@H]1O[C@@H](n2cnc3c(N)ncnc32)[C@H](O)[C@@H]1OP(=O)(O)O [hexanoyl-CoA],good levels of AT transacylation were observed for C3–C10 substrates
4,CC(C(=O)O)C(=O)SCCNC(=O)CCNC(=O)[C@H](O)C(C)(C)COP(=O)(O)OP(=O)(O)OC[C@H]1O[C@@H](n2cnc3c(N)ncnc32)[C@H](O)[C@@H]1OP(=O)(O)O (some centres unmarked) [methylmalonyl-CoA],methylmalonyl-CoA was able to acylate the AT domain
5,CCCCCCCC(=O)SCCNC(=O)CCNC(=O)[C@H](O)C(C)(C)COP(=O)(O)OP(=O)(O)OC[C@H]1O[C@@H](n2cnc3c(N)ncnc32)[C@H](O)[C@@H]1OP(=O)(O)O [octanoyl-CoA],good levels of AT transacylation were observed for C3–C10 substrates
6,CCC(=O)SCCNC(=O)CCNC(=O)[C@H](O)C(C)(C)COP(=O)(O)OP(=O)(O)OC[C@H]1O[C@@H](n2cnc3c(N)ncnc32)[C@H](O)[C@@H]1OP(=O)(O)O [propionyl-CoA],good levels of AT transacylation were observed for C3–C10 substrates

# Molecular target: T1, SimG AT domain (LD-AT)
# Test: intact protein MS, acyl-enzyme formation
# Type: biochemical
# Settings: covalent; active site Ser706; excess acyl-CoA; no ACP
row,SMILES,% loading of AT domain [%]
1,CC(=O)SCCNC(=O)CCNC(=O)[C@H](O)C(C)(C)COP(=O)(O)OP(=O)(O)OC[C@H]1O[C@@H](n2cnc3c(N)ncnc32)[C@H](O)[C@@H]1OP(=O)(O)O [acetyl-CoA],35.3 ± 0.9
2,CC(C)(COP(=O)(O)OP(=O)(O)OC[C@H]1O[C@@H](n2cnc3c(N)ncnc32)[C@H](O)[C@@H]1OP(=O)(O)O)[C@@H](O)C(=O)NCCC(=O)NCCSC(=O)CC(=O)O [malonyl-CoA],64.5 ± 1.4
